Reference: the Kinase Knowledgebase extract (Sharma et al. 2016)

Molecular target: MAPK14 (human) (UniProt Q16539)
Test: Inhibition of LPS Stimulated TNF Production by U937 Cells
Conditions: not given

Sequence of MAPK14 (human) (Q16539 whole entry, looked up): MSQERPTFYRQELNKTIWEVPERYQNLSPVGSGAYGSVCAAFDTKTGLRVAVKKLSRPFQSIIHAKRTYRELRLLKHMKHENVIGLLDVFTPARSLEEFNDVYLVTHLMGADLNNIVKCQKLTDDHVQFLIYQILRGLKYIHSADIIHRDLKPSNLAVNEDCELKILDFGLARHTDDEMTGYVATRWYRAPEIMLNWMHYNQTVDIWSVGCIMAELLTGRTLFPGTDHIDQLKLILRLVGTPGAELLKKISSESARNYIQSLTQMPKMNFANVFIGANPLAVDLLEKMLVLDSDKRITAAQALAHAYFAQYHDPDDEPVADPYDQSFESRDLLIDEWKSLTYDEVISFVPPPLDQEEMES

SMILES | IC50
C[C@@H](NC(N)=O)c1[nH]nc(-c2ccc(F)cc2)c1-c1ccncc1 | 1510 nM
Cn1cc(-c2ccnc(F)c2)c(-c2ccc(F)c(F)c2)n1 | 1280 nM
CNC(=O)CC[C@H](NC(=O)COC)c1[nH]nc(-c2ccc(F)cc2)c1-c1ccncc1 | > 1000 nM
Cn1nc(-c2ccc(F)cc2)c(-c2ccncc2)c1C(O)c1ccccc1 (configuration not stated) | 349 nM
FC(F)(F)c1cccc(-c2n[nH]cc2-c2ccncc2)c1 | 87 nM
C[C@@H](NS(C)(=O)=O)c1[nH]nc(-c2ccc(F)cc2)c1-c1ccncc1 | 440 nM
c1cc(-c2c[nH]nc2-c2ccc3c(c2)OCO3)ccn1 | 417 nM
CC(C)(C)C(=O)N[C@H](Cc1ccccc1)c1[nH]nc(-c2ccc(F)cc2)c1-c1ccncc1 | > 1000 nM
Cc1[nH]nc(-c2ccc(Br)cc2)c1-c1ccncc1 | 244 nM
Fc1ccc(-c2n[nH]cc2-c2ccnc3ccccc23)cc1 | 1130 nM

Same assay, conditions: concentration not given here

SMILES | inhibition
C[C@H](NC(=O)c1cccc(C(F)(F)F)c1F)c1[nH]nc(-c2ccc(F)cc2)c1-c1ccncc1 | 15%
C[C@H](NS(=O)(=O)c1ccccc1C(F)(F)F)c1[nH]nc(-c2ccc(F)cc2)c1-c1ccncc1 | 55%
O=C(NCc1[nH]nc(-c2ccc(F)cc2)c1-c1ccncc1)C(c1ccccc1)c1ccccc1 | 78%
C[C@H](NS(=O)(=O)c1c(Cl)cccc1Cl)c1[nH]nc(-c2ccc(F)cc2)c1-c1ccncc1 | 77%
COC(=O)NCc1[nH]nc(-c2ccc(F)cc2)c1-c1ccncc1 | 52%
C[C@H](NS(=O)(=O)c1cccc2nonc12)c1[nH]nc(-c2ccc(F)cc2)c1-c1ccncc1 | 78%
O=S(=O)(NCc1[nH]nc(-c2ccc(F)cc2)c1-c1ccncc1)c1ccccc1Cl | 70%
CS(=O)(=O)c1ccccc1S(=O)(=O)NCc1[nH]nc(-c2ccc(F)cc2)c1-c1ccncc1 | 23%
O=S(=O)(NCc1[nH]nc(-c2ccc(F)cc2)c1-c1ccncc1)c1cccc(Cl)c1Cl | 30%
C[C@@H](NC(=O)c1cccc(C#N)c1)c1[nH]nc(-c2ccc(F)cc2)c1-c1ccncc1 | 37%
C[C@@H](NC(=O)c1ccc(C(F)(F)F)cc1F)c1[nH]nc(-c2ccc(F)cc2)c1-c1ccncc1 | 48%
C[C@@H](NC(=O)N1CCCC1)c1[nH]nc(-c2ccc(F)cc2)c1-c1ccncc1 | 48%
O=C(NCCc1ccccc1)NCc1[nH]nc(-c2ccc(F)cc2)c1-c1ccncc1 | 9%
C[C@H](NS(=O)(=O)c1ccccc1S(C)(=O)=O)c1[nH]nc(-c2ccc(F)cc2)c1-c1ccncc1 | 73%
O=C(NCc1[nH]nc(-c2ccc(F)cc2)c1-c1ccncc1)Nc1ccc(C(F)(F)F)cc1 | 10%
CNC(=O)CC[C@H](NC(=O)Cc1cccc(OC)c1)c1[nH]nc(-c2ccc(F)cc2)c1-c1ccncc1 | 3%
O=C(NCCCc1[nH]nc(-c2ccc(F)cc2)c1-c1ccncc1)NCc1cccnc1 | 11%
CCCC(CCC)C(=O)NCc1[nH]nc(-c2ccc(F)cc2)c1-c1ccncc1 | 29%
C[C@@H](NC(=O)c1cccc(F)c1)c1[nH]nc(-c2ccc(F)cc2)c1-c1ccncc1 | 52%
COc1ccc(C)cc1S(=O)(=O)N[C@@H](C)c1[nH]nc(-c2ccc(F)cc2)c1-c1ccncc1 | 76%
C[C@H](NC(=O)c1ccccc1Br)c1[nH]nc(-c2ccc(F)cc2)c1-c1ccncc1 | 39%
C[C@@H](NS(=O)(=O)c1cccc2cnccc12)c1[nH]nc(-c2ccc(F)cc2)c1-c1ccncc1 | 74%
C[C@@H](NC(=O)N1CCOCC1)c1[nH]nc(-c2ccc(F)cc2)c1-c1ccncc1 | 30%
O=C(NCc1[nH]nc(-c2ccc(F)cc2)c1-c1ccncc1)[C@@H]1C[C@@H]1c1ccccc1 | 28%
CN(C)c1cccc2c(S(=O)(=O)N3CCC(c4[nH]nc(-c5ccc(F)cc5)c4-c4ccncc4)CC3)cccc12 | 18%
C[C@@H](NC(=O)c1c(F)cccc1C(F)(F)F)c1[nH]nc(-c2ccc(F)cc2)c1-c1ccncc1 | 86%
C[C@@H](NS(=O)(=O)c1ccc(Br)cc1)c1[nH]nc(-c2ccc(F)cc2)c1-c1ccncc1 | 89%
